Reference: PubChem BioAssay (NCI)
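Results reflect a 48-hour exposure of cells in 96-well plates to compound at five concentrations. At the TGI there is no net growth.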

How the values were obtained:
Experiment in all cases: NCI anticancer screen, dose series, 48 h
786-0 renal = system: 786-0 renal
ACHN renal = system: ACHN renal
EKVX NSCLC = system: EKVX NSCLC
HCT-116 colon = system: HCT-116 colon
HCT-15 colon = system: HCT-15 colon
HOP-62 NSCLC = system: HOP-62 NSCLC
HS 578T breast = system: HS 578T breast
LOX IMVI melanoma = system: LOX IMVI melanoma
M14 melanoma = system: M14 melanoma
MCF7 breast = system: MCF7 breast
NCI-H226 lung = system: NCI-H226 lung
NCI/ADR-RES ovarian = system: NCI/ADR-RES ovarian
OVCAR-3 ovarian = system: OVCAR-3 ovarian
OVCAR-8 ovarian = system: OVCAR-8 ovarian
SN12C renal = system: SN12C renal
SW-620 colon = system: SW-620 colon
UACC-257 melanoma = system: UACC-257 melanoma
SR leukemia = system: SR leukemia

SMILES	TGI (786-0 renal) [µM]	TGI (ACHN renal) [µM]	TGI (EKVX NSCLC) [µM]	TGI (HCT-116 colon) [µM]	TGI (HCT-15 colon) [µM]	TGI (HOP-62 NSCLC) [µM]	TGI (HS 578T breast) [µM]	TGI (LOX IMVI melanoma) [µM]	TGI (M14 melanoma) [µM]	TGI (MCF7 breast) [µM]	TGI (NCI-H226 lung) [µM]	TGI (NCI/ADR-RES ovarian) [µM]	TGI (OVCAR-3 ovarian) [µM]	TGI (OVCAR-8 ovarian) [µM]	TGI (SN12C renal) [µM]	TGI (SW-620 colon) [µM]	TGI (UACC-257 melanoma) [µM]	TGI (SR leukemia) [µM]
CC(C)=C[C@@H]1C[C@H](C)c2c(O)cc(C)c3c2C1=C(C)C(=O)C3=O	36.1	34.3	33	28.5	29.4	35.8	41.8	33.3	27	65.8	33	49.6	32.1	35.2	28.3	32.4	37.5	
O=C(/C=C\c1ccccc1)Oc1ccc(/C=C2\CCCCC2=O)cc1	> 100	> 100	> 100	> 100	79.7	> 100	> 100	> 100	> 100	> 100			> 100	> 100	> 100	> 100	87.3	
Cc1nc(-c2cc3c(ccc4ccccc43)oc2=O)cc2c1c(=O)oc1ccc3ccccc3c12	> 100	> 100	> 100	> 100	> 100	> 100		> 100	> 100	> 100		> 100	> 100	> 100		> 100	> 100	> 100
O=C1Oc2ccccc2C(=O)/C1=C/N1C(=O)N/C(=C\c2cccc(O)c2)C1=O	> 100	> 100	> 100	> 100	> 100	> 100		> 100	> 100	> 100	> 100	> 100	> 100	> 100	> 100	> 100	> 100	
COc1ccc(C2CC(=O)CC(c3ccc(OC)cc3)C23C(=O)NC(=S)NC3=O)cc1 (configuration not stated)	> 100	> 100	> 100	> 100	> 100	> 100		> 100	> 100	> 100	> 100	> 100	> 100	> 100	> 100	> 100	> 100	> 100
COc1ccc(/C=C2\SC(c3ccc(OC)cc3)N(NC(=O)Cc3ccccc3)C2=O)cc1 (configuration not stated)	> 100	> 100		> 100	> 100	> 100		> 100	> 100		> 100			> 100	> 100	> 100	> 100	> 100
CN1C(=O)[C@@H]2N(CSC2(C)C)C1=S	> 100	> 100	> 100	> 100	> 100	> 100			> 100	> 100	> 100	> 100	> 100	> 100	> 100	> 100	> 100	> 100
COc1ccc2c(c1)CC[C@@H]1[C@@H]2CC[C@]2(C)C(=O)/C(=C/c3ccncc3)C[C@@H]12	> 100	> 100	> 100	> 100	> 100	54.9		> 100	> 100	> 100	> 100	> 100	44.2	> 100	> 100	86	> 100	> 100
Cc1ccc2c(c1)SC(c1cc3c(cc1Br)OCO3)S2 (configuration not stated)	> 31.6	> 31.6	> 31.6	> 31.6	> 31.6	> 31.6		> 31.6	> 31.6		> 31.6		> 31.6	> 31.6	> 31.6	> 100	> 31.6	> 31.6
O=C(Nc1nc2ccccc2n1Cc1ccc(Cl)cc1)NC12CC3CC(CC(C3)C1)C2	58.4	> 100	> 100	64	> 100	37.3		> 100	> 100		70.7		60.7		> 100	> 100	> 100	> 100
COc1cc([C@@H]2c3cc4c(cc3[C@@H](NCc3ccccc3)C3COC(=O)[C@@H]32)OCO4)cc(OC)c1O (some centres not stated)	12.5	5.92	38.1	> 100	33.5	9.63		25.9	36.6		11.2		42.5	51.7	18.8	57.5	> 90.2	4.84
O=C1/C(=C/c2ccccc2)N=C(c2ccccc2)N1C1Nc2cc3c(cc2S1)NC(N1C(=O)/C(=C/c2ccccc2)N=C1c1ccccc1)S3 (configuration not stated)	> 100	> 100	> 100	> 100	82.9	> 100		> 100	> 100	> 100	> 100	> 100	> 100	> 100		78.5	> 100	> 100
CCCc1c(C(=O)OCC)[nH]c(-c2ccc(-c3[nH]c(C(=O)OCC)c(CCC)c3C(=O)OCC)o2)c1C(=O)OCC	> 100	> 100	> 100	> 100	> 100			> 100	> 100		> 100		> 100	> 100	> 100	> 100	> 100	> 100
Cc1cc(C)n(-c2nc3ccccc3c(=O)n2-c2ccccc2)n1	> 100	> 100		> 100	> 100	> 100		> 100	> 100	> 100	> 100	> 100	> 100	> 100	> 100	> 100	> 100	> 100
c1ccc(N=c2sc3ccccc3sc2=Nc2ccccc2)cc1	3.14	3.03	7.26	3.18	3.57	15.3	7.51	3.43			9.3	7.03		4.08	3.15	3.27	12.7	> 100
COC(=O)c1c2c(c(-c3ccccc3)c3c1-c1nc(Cl)ccc1CC3)CCc1ccc(Cl)nc1-2	> 100	> 100	> 100	> 100	> 100	> 100		> 100	> 100		> 100		> 100	> 100	> 100	> 100	> 100	> 100
CC1(Br)C(=O)NC(=O)N(C2CC(N=[N+]=[N-])C(CO)O2)C1N=[N+]=[N-] (configuration not stated)	> 100	> 100	> 100		> 100	> 100		> 100	> 100				> 100	> 100	> 100	> 100	> 100	
NC1CC(=O)c2csc(Cl)c21 (configuration not stated)	2.96	10.3	35.9	14.1	14.2	29.1	> 100	24.1	23.7	> 100	94.6	> 86.7	30.9	23	14.2		29	
CC(C)C1SCc2nc3ccccc3n21 (configuration not stated)	> 100	> 100	> 100	> 100	> 100	> 100	> 100	> 100	> 100	45.8	0.96	> 100	> 100	> 100	> 100	> 100	> 100	
NC1=CN(Cc2ccccc2)C2=N/C(=C\c3ccccc3)C(=O)N12	> 100	> 100	> 100	> 100	> 100	> 100	> 100	> 100	> 100	> 100	> 100	> 100	> 100	> 100	> 100	> 100	> 100	
NCCCCN(CCCN)Cc1ccccc1	> 100	> 100	> 100	> 100	> 100	> 100	> 100		> 100	> 100	> 100	> 100	> 100	> 100	> 100	> 100	> 100	
Cc1nc(-c2nc(C)c(C(=O)NN(C)C)s2)sc1C(=O)NN(C)C	> 100	> 100	> 100		> 100	> 100		48.9	> 100		> 100		> 100	> 100	> 100		> 100	40.7
CCOC(=O)C(=Cc1cc(OC)ccc1OC)C(=O)OCC	14.1	31.8	31.3	27.5	22	23.6		19.5	24.2		27		22.5	20.9	26.3	14		
N#Cc1c(C#N)c(-c2ccco2)n(-c2ccccc2)c1N	> 100	> 100	> 100	> 100	> 100	> 100		> 100	> 100	> 100	> 100	> 100	> 100	73.1	> 100	> 100	> 100	> 100
COc1ccc(N2C(=O)c3cccnc3S2(=O)=O)cc1	> 100	> 100	> 100	> 100	> 100	> 100			> 100	> 100	> 100	> 100	> 100	> 100	> 100	> 100	> 100	> 100
O=c1cc(-c2ccccc2)oc2ccc(-c3ccc4oc(-c5ccccc5)cc(=O)c4c3)cc12	72.5	59.2	20.1	31.2	30	36.5	37.4	33.2	30.2	42.1		51.5		35.2		> 100		
O=C(Nc1nnc(-c2c(Cl)c(Cl)c(Cl)c(Cl)c2-c2nc3cc(C(=O)c4ccccc4)ccc3[nH]2)o1)c1ccccc1	30.5	55.6	38.7	87.3	36.7	26.3		32	34.4	36.5	35.5	33.3	44.7	> 100	31.3	> 100	85.7	20.9
COc1ccc2c(c1)CCCN1Cc3cc(OC)c(OC)cc3CC21 (configuration not stated)	> 100	> 100	> 100	> 100	> 100	> 100	> 100	> 100	44.1	> 100	> 100	> 100	> 100	> 100	> 100	> 100	> 100	
COc1ccc2nc(NC(=O)C(=O)C(C(=O)c3ccccc3-c3ccccc3)C3OC(=O)c4ccccc43)sc2c1 (configuration not stated)	31.7	73.9	45.9	27.6		35.3		35.4	41.5		21.2		48.2	59.3		50.1	> 100	
